Measured values published in ChEMBL document CHEMBL4043250 (Bioorg Med Chem Lett, 2017).

Key:
AGS [1] = test: Growth inhibition of human AGS cells at 100 uM after 48 hrs by MTT assay relative to control; format: functional; details: read-out: GI
L02 = test: (§1) Anti-proliferative activity against human L02 cells after 48 hrs by MTT assay; format: ADME, cell-based; parameters: inhibition at 48 h: concentration or dose not given beside the values; details: Homo sapiens, L02, 48 h
[2] = Selectivity index, ratio of IC50 for human L02 cells to IC50 for human AGS cells; format: functional
AGS [3] = test: Anti-proliferative activity against human AGS cells after 48 hrs by MTT assay; format: functional, cell-based
[4] = as §1; format: ADME, cell-based; parameters: inhibition at 48 h: concentration or dose not given beside the values; details: human, L02 cells
AGS [5] = test: Induction of apoptosis in human AGS cells assessed as late apoptotic cells at 10 uM after 48 hrs by Annexin-V-FITC/propidium iodide staining based flow cytometry (reference value: 0.3%); format: functional
AGS [6] = test: Induction of apoptosis in human AGS cells assessed as early apoptotic cells at 10 uM after 48 hrs by Annexin-V-FITC/propidium iodide staining based flow cytometry (reference value: 0.2%); format: functional
AGS [7] = test: Cell cycle arrest in human AGS cells assessed as accumulation at G1 phase at 0.1 uM after 48 hrs by propidium iodide staining based flow cytometry (reference value: 77.02%); format: functional
AGS [8] = test: Cell cycle arrest in human AGS cells assessed as accumulation at G2 phase at 10 uM after 48 hrs by propidium iodide staining based flow cytometry (reference value: 16.41%); format: functional
AGS [9] = test: Induction of apoptosis in human AGS cells assessed as early apoptotic cells at 0.1 uM after 48 hrs by Annexin-V-FITC/propidium iodide staining based flow cytometry (reference value: 0.2%); format: functional
AGS [10] = test: Cell cycle arrest in human AGS cells assessed as accumulation at S phase at 10 uM after 48 hrs by propidium iodide staining based flow cytometry (reference value: 6.57%); format: functional
AGS [11] = test: Induction of apoptosis in human AGS cells assessed as necrotic cells at 10 uM after 48 hrs by Annexin-V-FITC/propidium iodide staining based flow cytometry (reference value: 2%); format: functional
AGS [12] = test: Cell cycle arrest in human AGS cells assessed as accumulation at G2 phase at 0.1 uM after 48 hrs by propidium iodide staining based flow cytometry (reference value: 16.41%); format: functional
AGS [13] = test: Induction of apoptosis in human AGS cells assessed as necrotic cells at 0.1 uM after 48 hrs by Annexin-V-FITC/propidium iodide staining based flow cytometry (reference value: 2%); format: functional
AGS [14] = test: Cell cycle arrest in human AGS cells assessed as accumulation at G1 phase at 10 uM after 48 hrs by propidium iodide staining based flow cytometry (reference value: 77.02%); format: functional
AGS [15] = test: Cell cycle arrest in human AGS cells assessed as accumulation at S phase at 0.1 uM after 48 hrs by propidium iodide staining based flow cytometry (reference value: 6.57%); format: functional
AGS [16] = test: Induction of apoptosis in human AGS cells assessed as viable cells at 0.1 uM after 48 hrs by Annexin-V-FITC/propidium iodide staining based flow cytometry (reference value: 97.5%); format: functional; details: read-out: Activity
AGS [17] = test: Induction of apoptosis in human AGS cells assessed as viable cells at 10 uM after 48 hrs by Annexin-V-FITC/propidium iodide staining based flow cytometry (reference value: 97.5%); format: functional; details: read-out: Activity
AGS [18] = test: Induction of apoptosis in human AGS cells assessed as late apoptotic cells at 0.1 uM after 48 hrs by Annexin-V-FITC/propidium iodide staining based flow cytometry (reference value: 0.3%); format: functional

Row | SMILES | inhibition of growth at 100 µM (AGS [1]) | IC50 (L02) | Ratio IC50 [2] | IC50 (AGS [3]) | other results
1 | O=c1ccc2cc3ccoc3c(OCc3cn(-c4ccc(Cl)cc4)nn3)c2o1 | 89.6% | > 100 µM | >12.2 | 8.2 µM | –
2 | O=c1ccc2cc3ccoc3c(OCc3cn(-c4ccccc4F)nn3)c2o1 | 39.6% | – | – | – | –
3 | O=c1ccc2cc3ccoc3c(OCc3nncn3-c3ccc(F)cc3)c2o1 | 72.3% | 94.2 µM | 7.2 | 13.1 µM | inhibition at 48 h [4]: 53.1%
4 | O=c1ccc2cc3ccoc3c(OCc3cn(Cc4ccccc4Cl)nn3)c2o1 | 33.2% | – | – | – | –
5 | Cc1ccc(-n2cc(COc3c4occc4cc4ccc(=O)oc34)nn2)cc1 | 65.6% | > 100 µM | >3 | 33.2 µM | –
6 | Cc1ccc(Cn2cc(COc3c4occc4cc4ccc(=O)oc34)nn2)cc1 | 47% | – | – | – | –
7 | COc1ccc(-n2cnnc2COc2c3occc3cc3ccc(=O)oc23)cc1 | 34.4% | – | – | – | –
8 | O=c1ccc2cc3ccoc3c(OCc3nncn3-c3ccc(Cl)cc3)c2o1 | 40.3% | – | – | – | –
9 | O=c1ccc2cc3ccoc3c(OCc3nncn3-c3ccccc3)c2o1 | 40.1% | – | – | – | –
10 | O=c1ccc2cc3ccoc3c(OCc3cn(-c4ccc(F)cc4)nn3)c2o1 | 70.4% | > 100 µM | >9.3 | 10.7 µM | –
11 | Cc1ccc(-n2cnnc2COc2c3occc3cc3ccc(=O)oc23)cc1 | 39.4% | – | – | – | –
12 | O=c1ccc2cc3ccoc3c(OCc3cn(Cc4ccc(Cl)cc4Cl)nn3)c2o1 | 67.7% | 90.2 µM | 3.4 | 26.5 µM | –
13 | O=c1ccc2cc3ccoc3c(OCc3cn(Cc4ccccc4F)nn3)c2o1 | 25.5% | – | – | – | –
14 | O=c1ccc2cc3ccoc3c(OCc3nncn3-c3ccc(C(F)(F)F)cc3)c2o1 | 52.9% | > 100 µM | >2.4 | 41 µM | –
15 | O=c1ccc2cc3ccoc3c(OCc3cn(Cc4cccc(C(F)(F)F)c4)nn3)c2o1 | 51.7% | > 100 µM | – | > 100 µM | –
16 | O=c1ccc2cc3ccoc3c(OCc3cn(Cc4ccc(F)cc4)nn3)c2o1 | 43.1% | – | – | – | –
17 | O=c1ccc2cc3ccoc3c(OCc3cn(Cc4cccc(Cl)c4)nn3)c2o1 | 49.5% | – | – | – | –
18 | O=c1ccc2cc3ccoc3c(OCc3nncn3-c3ccccc3Cl)c2o1 | 45.2% | – | – | – | –
19 | O=c1ccc2cc3ccoc3c(OCc3cn(-c4ccc(C(F)(F)F)cc4)nn3)c2o1 | 92.4% | > 100 µM | >13.3 | 7.5 µM | Activity (AGS [5]): 1%; Activity (AGS [6]): 0.9%; Activity (AGS [7]): 61.1%; Activity (AGS [8]): 38.17%; inhibition at 48 h [4]: 33.9%; Activity (AGS [9]): 0.3%; Activity (AGS [10]): 12.08%; Activity (AGS [11]): 1.7%; Activity (AGS [12]): 31.73%; Activity (AGS [13]): 1.8%; Activity (AGS [14]): 49.76%; Activity (AGS [15]): 7.17%; viability at 0.1 µM (AGS [16]): 96.2%; viability at 10 µM (AGS [17]): 96.4%; Activity (AGS [18]): 0.8%
20 | Cc1nncn1-c1ccc(F)cc1 | 13.9% | > 100 µM | – | > 100 µM | inhibition at 48 h [4]: 16.9%
21 | O=c1ccc2cc3ccoc3c(OCc3cn(-c4ccccc4)nn3)c2o1 | 46.4% | – | – | – | –
22 | COc1ccc(-n2cc(COc3c4occc4cc4ccc(=O)oc34)nn2)cc1 | 53.2% | > 100 µM | >1.1 | 94.6 µM | –
23 | O=c1ccc2cc3ccoc3c(OCc3cn(Cc4ccccc4)nn3)c2o1 | 24.4% | – | – | – | –
24 | O=c1ccc2cc3ccoc3c(OCc3cn(Cc4c(Cl)cccc4Cl)nn3)c2o1 | 32.5% | – | – | – | –
25 | O=c1ccc2cc3ccoc3c(OCc3cn(Cc4cccc(F)c4)nn3)c2o1 | 30.1% | – | – | – | –
26 | O=c1ccc2cc3ccoc3c(OCc3cn(Cc4ccc(Cl)cc4)nn3)c2o1 | 53.2% | > 100 µM | >1.1 | 93.2 µM | –
27 | Cc1cn(-c2ccc(C(F)(F)F)cc2)nn1 | 44.5% | > 100 µM | – | > 100 µM | inhibition at 48 h [4]: 9.4%
28 | O=c1[nH]cc(F)c(=O)[nH]1 [FLUOROURACIL] | 74.9% | – | – | 29.6 µM | –
29 | COc1c2occc2cc2ccc(=O)oc12 [METHOXSALEN] | 35.3% | > 100 µM | – | > 100 µM | inhibition at 48 h [4]: 3.3%
